Assay results taken from EP0745595A1, “3-(3-Aryloxyphenyl)-1-(substituted methyl)-s-triazine-2,4,6-oxo or thiotrione herbicidal agents” (American Cyanamid Company, priority 1995, dated 1996).

What was measured:
Format in all cases: in vivo
[1] = system: ABUTILON THEOPHRASTI, MEDIC.; experiment: Postemergence herbicidal evaluation, ABUTH (Velvetleaf); conditions: for ABUTH, herbicide rating (0-9): rated four to five weeks after treatment, averaged
Method in brief: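 This postemergence herbicide test used two-week-old velvetleaf seedlings grown in jiffy flats. Each compound was sprayed at 40 psi as a dispersion in 50/50 acetone/water with 0.5% TWEEN®20 surfactant. Plants then received routine greenhouse care. After four to five weeks, injury was scored visually on a 0-9 scale against a control, and replicate tests were averaged.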

[2] = system: GLYCINE MAX(L) MERR. CV. WILLIAMS; experiment: Postemergence herbicidal evaluation, GLXMAW (Soybean, Williams); parameters: key to GLXMAW rating / Herbicidal effect rating, GLXMAW / GLXMAW: 0-9 visual rating scale vs untreated control
Method in brief: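 Herbicidal injury to Williams soybean was assessed after a postemergence spray of two-week-old seedlings grown in jiffy flats. Compounds were dispersed in an acetone/water (50/50) mixture with 0.5% TWEEN®20 surfactant and applied at 40 psi. After four to five weeks in the greenhouse, stand, vigor, malformation, size and chlorosis were compared against a control on a 0-9 scale, and results from replicate tests were averaged.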

[3] = system: ORYZA SATIVA, L. TEBONNET; experiment: Postemergence herbicidal evaluation, ORYSAT (Rice, Tebonnet); parameters: key: 0-9 visual rating scale vs untreated control
Method in brief: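 This postemergence greenhouse test used Oryza sativa cv. Tebonnet seedlings grown about two weeks in jiffy flats. Test material in 50/50 acetone/water with 0.5% TWEEN®20 surfactant was applied through a spray nozzle at 40 psi. Four to five weeks later, stand, vigor, malformation, size, chlorosis and overall appearance were rated 0-9 relative to a control, and repeat tests were averaged.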

CASSIA OBTUSIFOLIA, L. = experiment: Preemergence herbicidal evaluation, CASOB (Sicklepod); conditions: four to five weeks after treatment
Method in brief: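 Preemergence herbicidal activity against sicklepod was assessed by planting seed mixed with potting soil atop about one inch of soil in pint cups. After treatment the cups were watered and handled per standard greenhouse practice. Tests ended four to five weeks later, with plant stand, vigor, malformation, size, chlorosis and overall appearance scored 0-9 relative to a control.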

GALIUM APARINE = experiment: Preemergence herbicidal evaluation, GALAP (Galium); conditions: for GALAP rating: four to five weeks after treatment; for GALAP herbicidal rating: rated four to five weeks after treatment
Method in brief: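 Injury scored visually (0–9; stand, vigor, malformation, size, chlorosis) versus untreated control, four to five weeks post-treatment. Application: aqueous acetone spray onto freshly planted soil cups, equivalent to about 0.125 to 0.50 kg/ha, plants then kept under standard greenhouse care.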

[4] = system: ECHINOCHLOA ORYZOIDES (ARD.)FRITSCH; experiment: Preemergence weed control under flooded paddy conditions, ECHORC (Watergrass (Calif.)); conditions: for ECHORC herbicidal rating: preemergence weeds, rated three to four weeks after treatment; for Herbicidal effect rating, ECHORC: preemergence, 3-4 weeks after treatment; for ECHORC: pre-weed
Method in brief: (§1)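 In undrained pots of silt loam flooded to 1.5-3 cm, compounds are pipetted into the water before emergence at the equivalent of about 0.5, 0.25, 0.125 and 0.063 kg/ha. Plants are scored 0-9 for stand, vigor, malformation, size and chlorosis at test end (3-4 weeks).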

CYPERUS IRIA = experiment: Preemergence weed control under flooded paddy conditions, CYPIR (Rice Flatsedge); conditions: preemergence weeds, rated three to four weeks after treatment
Method in brief: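 This preemergence test mimicked flooded paddy conditions: rice flatsedge propagules were sown in the upper 0.5 cm of silt loam in undrained 32 oz. containers (10.5 cm diameter), with water held 1.5 to 3 cm over the soil. After normal greenhouse care, plants were scored 0-9 for stand, vigor, malformation, size, chlorosis and appearance relative to controls.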

[…], PRESL. = Preemergence weed control under flooded paddy conditions, MOOVA (Monochoria); conditions: for MOOVA herbicidal rating: preemergence weeds, rated three to four weeks after treatment; for Herbicidal effect rating, MOOVA: preemergence, 3-4 weeks after treatment; for MOOVA: pre-weed
Method in brief: as §1

COC(=O)Cn1c(=O)n(C)c(=O)n(-c2cc(Oc3c(F)cc(C(F)(F)F)cc3Cl)ccc2Br)c1=O [Compound 2, Methyl 3-{2-bromo-5-[(2-chloro-α,α,α,6-tetrafluoro-p-tolyl)oxy]phenyl}tetrahydro-5-methyl-2,4,6-trioxo-s-triazine-1(2H)-acetate] was tested, and the “Herbicidal effect rating, ABUTH” value ([1]; 0.063 kg/ha) was 8.8, the “Herbicidal effect rating, ABUTH” value ([1]; 0.125 kg/ha) was 9.0 and the “Herbicidal effect rating, ABUTH” value ([1]; 0.250 kg/ha) was 9.0. The “Herbicidal effect rating, ABUTH” value ([1]; 0.500 kg/ha) was 9.0, the “ABUTH, herbicide rating (0-9)” value ([1]; Rate 0.125 kg/ha) was 9.0 and the “ABUTH, herbicide rating (0-9)” value ([1]; Rate 0.250 kg/ha) was 9.0. The “ABUTH, herbicide rating (0-9)” value ([1]; Rate 0.500 kg/ha) was 9.0, the “Herbicidal effect rating, GLXMAW” value ([2]; 0.063 kg/ha) was 6.9 and the “Herbicidal effect rating, GLXMAW” value ([2]; 0.125 kg/ha) was 7.2. For the same compound, the “Herbicidal effect rating, GLXMAW” value ([2]; 0.250 kg/ha) was 8.0, the “Herbicidal effect rating, GLXMAW” value ([2]; 0.500 kg/ha) was 8.3 and the “Herbicidal effect rating, ORYSAT” value ([3]; 0.063 kg/ha) was 6.3. The “Herbicidal effect rating, ORYSAT” value ([3]; 0.125 kg/ha) was 6.3, the “Herbicidal effect rating, ORYSAT” value ([3]; 0.250 kg/ha) was 7.0 and the “Herbicidal effect rating, ORYSAT” value ([3]; 0.500 kg/ha) was 7.5. It also gave a CASOB rating (CASSIA OBTUSIFOLIA, L.; Rate 0.125 kg/ha) of 9.0, a CASOB rating (CASSIA OBTUSIFOLIA, L.; Rate 0.250 kg/ha) of 9.0 and a CASOB rating (CASSIA OBTUSIFOLIA, L.; Rate 0.500 kg/ha) of 9.0. The GALAP rating (GALIUM APARINE; Rate 0.125 kg/ha) was 9.0, the GALAP rating (GALIUM APARINE; Rate 0.250 kg/ha) was 9.0 and the GALAP rating (GALIUM APARINE; Rate 0.500 kg/ha) was 9.0. For the same compound, the ECHORC herbicidal rating ([4]; Rate 0.063 kg/ha) was 9.0, the ECHORC herbicidal rating ([4]; Rate 0.125 kg/ha) was 9.0 and the ECHORC herbicidal rating ([4]; Rate 0.250 kg/ha) was 9.0. For the same compound, the ECHORC herbicidal rating ([4]; Rate 0.500 kg/ha) was 9.0, the CYPIR herbicidal rating (CYPERUS IRIA; Rate 0.063 kg/ha) was 9.0 and the CYPIR herbicidal rating (CYPERUS IRIA; Rate 0.125 kg/ha) was 9.0. The CYPIR herbicidal rating (CYPERUS IRIA; Rate 0.250 kg/ha) was 9.0, the CYPIR herbicidal rating (CYPERUS IRIA; Rate 0.500 kg/ha) was 9.0 and the MOOVA herbicidal rating ([…], PRESL.; Rate 0.063 kg/ha) was 9.0. It also gave an MOOVA herbicidal rating ([…], PRESL.; Rate 0.125 kg/ha) of 9.0, an MOOVA herbicidal rating ([…], PRESL.; Rate 0.250 kg/ha) of 9.0 and an MOOVA herbicidal rating ([…], PRESL.; Rate 0.500 kg/ha) of 9.0.

COC(=O)Cn1c(=O)n(C)c(=O)n(-c2cc(Oc3c(F)cc(C(F)(F)F)cc3Cl)ccc2[N+](=O)[O-])c1=O [Compound 16, Methyl 3-{5-[(2-chloro-α,α,α,6-tetrafluoro-p-tolyl)oxy]-2-nitrophenyl}tetrahydro-5-methyl-2,4,6-trioxo-s-triazine-1(2H)-acetate] gave an ABUTH ([1]; Rate 0.008 kg/ha) of 5.5, an ABUTH ([1]; Rate 0.016 kg/ha) of 8.3 and an ABUTH ([1]; Rate 0.031 kg/ha) of 8.0. For the same compound, the ABUTH ([1]; Rate 0.063 kg/ha) was 8.3, the ABUTH ([1]; Rate 0.125 kg/ha) was 9.0 and the “ABUTH, herbicide rating (0-9)” value ([1]; Rate 0.125 kg/ha) was 9.0. The “ABUTH, herbicide rating (0-9)” value ([1]; Rate 0.250 kg/ha) was 9.0, the “ABUTH, herbicide rating (0-9)” value ([1]; Rate 0.500 kg/ha) was 9.0 and the GLXMAW ([2]; Rate 0.008 kg/ha) was 3.3. The GLXMAW ([2]; Rate 0.016 kg/ha) was 3.8, the GLXMAW ([2]; Rate 0.031 kg/ha) was 4.6 and the GLXMAW ([2]; Rate 0.063 kg/ha) was 5.1. It also gave a GLXMAW ([2]; Rate 0.125 kg/ha) of 5.6, an ORYSAT ([3]; Rate 0.008 kg/ha) of 4.0 and an ORYSAT ([3]; Rate 0.016 kg/ha) of 6.0. It also gave an ORYSAT ([3]; Rate 0.031 kg/ha) of 5.3, an ORYSAT ([3]; Rate 0.063 kg/ha) of 5.3 and an ORYSAT ([3]; Rate 0.125 kg/ha) of 5.8. The GALAP (GALIUM APARINE; Rate 0.031 kg/ha) was 9.0, the GALAP (GALIUM APARINE; Rate 0.063 kg/ha) was 9.0 and the GALAP (GALIUM APARINE; Rate 0.125 kg/ha) was 9.0. For the same compound, the GALAP herbicidal rating (GALIUM APARINE; Rate 0.125 kg/ha) was 9.0, the GALAP (GALIUM APARINE; Rate 0.250 kg/ha) was 9.0 and the GALAP herbicidal rating (GALIUM APARINE; Rate 0.250 kg/ha) was 9.0. The GALAP herbicidal rating (GALIUM APARINE; Rate 0.500 kg/ha) was 9.0, the “Herbicidal effect rating, ECHORC” value ([4]; 0.063 kg/ha) was 9.0 and the “Herbicidal effect rating, ECHORC” value ([4]; 0.125 kg/ha) was 9.0. The “Herbicidal effect rating, ECHORC” value ([4]; 0.250 kg/ha) was 9.0, the “Herbicidal effect rating, ECHORC” value ([4]; 0.500 kg/ha) was 9.0 and the ECHORC ([4]; Rate 0.031 kg/ha) was 9.0. It also gave an ECHORC ([4]; Rate 0.063 kg/ha) of 9.0, an ECHORC ([4]; Rate 0.125 kg/ha) of 9.0 and an ECHORC ([4]; Rate 0.250 kg/ha) of 9.0. For the same compound, the “Herbicidal effect rating, MOOVA” value ([…], PRESL.; 0.063 kg/ha) was 9.0, the “Herbicidal effect rating, MOOVA” value ([…], PRESL.; 0.125 kg/ha) was 9.0 and the “Herbicidal effect rating, MOOVA” value ([…], PRESL.; 0.250 kg/ha) was 9.0. For the same compound, the “Herbicidal effect rating, MOOVA” value ([…], PRESL.; 0.500 kg/ha) was 9.0, the MOOVA ([…], PRESL.; Rate 0.031 kg/ha) was 9.0 and the MOOVA ([…], PRESL.; Rate 0.063 kg/ha) was 9.0. For the same compound, the MOOVA ([…], PRESL.; Rate 0.125 kg/ha) was 9.0 and the MOOVA ([…], PRESL.; Rate 0.250 kg/ha) was 9.0.
